Source: article PMC5464344, “Analgesic and anti‐inflammatory properties of novel, selective, and potent EP4 receptor antagonists” (Pharmacology Research & Perspectives, 2017)

Legend:
[1] = test system: male Lewis rats, MIA injected knee; set-up: method as in Blanco et al. 2016b; conditions: results published previously, ref Blanco et al. 2016b; cited from earlier work
[2] = test system: male Lewis rats, adjuvant induced arthritis; set-up: method as in Blanco et al. 2016b; conditions: results published previously, ref Blanco et al. 2016b; cited from earlier work
[3] = target: T1, COXl (h) (Homo sapiens, UniProt P23219); assay: Off-target activity (CEREP), COX1; type: biochemical; conditions: 10 μmol/L; obtained at CEREP (Blanco et al. 2016c); Compound 1 value footnoted: non-specific assay interference
T1 construct: CEREP (contract laboratory that ran the assay)
T1 sequence (P23219 24-599): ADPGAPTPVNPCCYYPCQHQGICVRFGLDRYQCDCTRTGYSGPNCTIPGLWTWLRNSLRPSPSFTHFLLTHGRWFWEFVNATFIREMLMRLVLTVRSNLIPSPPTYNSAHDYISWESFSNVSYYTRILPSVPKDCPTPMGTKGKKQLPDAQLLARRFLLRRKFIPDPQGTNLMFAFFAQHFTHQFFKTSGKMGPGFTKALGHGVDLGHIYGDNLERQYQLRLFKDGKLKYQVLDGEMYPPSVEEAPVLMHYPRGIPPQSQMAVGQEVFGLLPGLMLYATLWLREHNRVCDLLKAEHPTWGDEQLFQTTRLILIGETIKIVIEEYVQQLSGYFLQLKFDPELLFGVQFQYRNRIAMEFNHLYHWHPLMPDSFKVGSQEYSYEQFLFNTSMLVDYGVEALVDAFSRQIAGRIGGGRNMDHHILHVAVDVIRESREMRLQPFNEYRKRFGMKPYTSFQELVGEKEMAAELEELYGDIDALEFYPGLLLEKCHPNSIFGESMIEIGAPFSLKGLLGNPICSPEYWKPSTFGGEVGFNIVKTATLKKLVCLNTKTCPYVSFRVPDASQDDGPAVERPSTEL
Excerpt: The off‐target activity related to prostaglandin pathway (Table 2) were obtained at CEREP (Blanco et al. 2016c).

[4] = test system: male Lewis rats, adjuvant induced arthritis; assay: AIA model of inflammation (paw swelling); type: in vivo; conditions: rat AIA; all 3 doses tested (1, 3, and 10 mg/kg) oral once daily 4 days; P < 0.05 by Dunnett's test
Protocol: For the monoiodoacetate (MIA) and adjuvant induced arthritis (AIA) studies, male Lewis rats (Envigo, Indianapolis, IN) of approximately 8 weeks of age at the time of disease induction were used. For collagen induced arthritis studies (CIA) female Lewis rats (Charles River) weighing 150–170 g were used. Rats were housed in groups of 2 or 3 per cage and maintained in a constant temperature, and on a 12 h light/12 h dark cycle. Animals had free access to food and water at all times except during data collection.
On Day 0, paw widths of both right and left paws were measured between the lateral and dorsal surfaces using calipers, and a mean paw thickness for each rat was calculated by averaging these measurements. Rats were then inoculated intradermally with 0.25 mg of adjuvant (M. Tuberculosis H37 RA from Difco) in 100 μL of mineral oil at the base of the tail to induce adjuvant disease. Eleven days post inoculation paw widths of both right and left paws were measured again, and the percent change from the Day 0 reading was calculated. […] On the fifth day after dosing started (day 15 post adjuvant injection) the rats were euthanized without further dosing and paw width measured again. The percent increase in mean paw thickness from day 11 to day 15 was then calculated as a measure of paw swelling which is indicative of the amount of inflammation in the paws measured. […]

SMILES: Cc1ccc(N2CCC(O)CC2)nc1C(=O)Nc1c(C)cc(C(=O)O)cc1C [Compound 1]
- efficacy in rat MIA model of pain [1]: effective
- efficacy in rat AIA model of inflammation [2]: effective

SMILES: C[C@H](NC(=O)[C@H]1CCCCN1CCOc1ccccc1)c1ccc(C(=O)O)cc1 [Compound 2]
- inhibition at 10 µM [3]: -24%
- increases in paw inflammation (swelling) compared to vehicle [4]: significantly inhibited
